Read-outs that look alike come from different tables or passages of the source.
Tests used:
[1] = Bioavailability after single dose: sublingual tablets (Examples I-III) versus conventional oral tablets, crossed randomized studies; conditions: for AUC(0-inf) / AUC(0-t) / Cmax / Tmax / concentration / concentration at 0 min / concentration at 20 min / concentration at 40 min / concentration at 1 h / concentration at 2 h / concentration at 2.5 h / concentration at 4 h / concentration at 6 h / concentration at 8 h / concentration at 10 h / concentration at 12 h / concentration at 24 h: male, human, plasma; for AUC and Cmax, sublingual versus oral: sublingual versus conventional oral tablets
Experimental: Three studies were carried out, each of them with eight healthy volunteers of the male sex, recruited after information on the nature and characteristics of the principles included in the scope of the study. Each study, composed of two periods of treatment, was carried out according to a crossed and randomized scheme. All individuals received the previously established dose of the active ingredient in the form of conventional oral tablets and sublingual tablets, with a period of detoxication of, at least, seven days between the first and the following administration, according to a previously established randomized list. The sublingual tablets were placed under the tongue until complete dissolution, in correspondence with the venous plexus, while the conventional oral tablets were swallowed unbroken with 150 ml of mineral water. Within the intervals of 0-20-40 minutes, 1-1,5-2-2,5-3-3,5-4-6-8-10-[…] and 24 hours after the treatment, 5 ml of blood were collected.

[2] = cited from earlier work; for plasmatic concentration peak: 2 mg tablets

## O=C1CN=C(c2ccccn2)c2cc(Br)ccc2N1 [BROMAZEPAN, bromazepam]
[1]
  AUC(0-inf): 1900 ± 326 ng·h/mL
  AUC(0-t): 1160 ± 102 ng·h/mL
  Cmax: 120 ± 12.1 ng/mL
  Tmax: 45 ± 9 min
  AUC and Cmax, sublingual versus oral: comparable
[1]; other: sublingual
  concentration: 67.9 ± 6.1 ng/mL
  concentration at 0 min: 0 ng/mL
  concentration at 20 min: 80.8 ± 11.3 ng/mL
  concentration at 40 min: 109 ± 22.1 ng/mL
  concentration at 1 h: 110 ± 15.2 ng/mL
  concentration at 2 h: 84 ± 5.7 ng/mL
  concentration at 2.5 h: 74.2 ± 5.7 ng/mL
  concentration at 4 h: 63.4 ± 5.5 ng/mL
  concentration at 6 h: 57.1 ± 5 ng/mL
  concentration at 8 h: 49.4 ± 7 ng/mL
  concentration at 10 h: 44.8 ± 6.2 ng/mL
  concentration at 12 h: 38.8 ± 5.6 ng/mL
  concentration at 24 h: 33.5 ± 6.1 ng/mL
[1]; other: sublingual versus oral
  Tmax: ~30 min
[1]; po
  AUC(0-inf): 1760 ± 223 ng·h/mL
  AUC(0-t): 1130 ± 60.2 ng·h/mL
  Cmax: 125 ± 9.81 ng/mL
  Tmax: 75 ± 22.8 min
  concentration: 70.2 ± 6.8 ng/mL
  concentration at 20 min: 69 ± 10.1 ng/mL
  concentration at 40 min: 91.7 ± 5.6 ng/mL
  concentration at 1 h: 117 ± 14.9 ng/mL
  concentration at 2 h: 91.6 ± 9.7 ng/mL
  concentration at 2.5 h: 77.2 ± 5.9 ng/mL
  concentration at 4 h: 63.1 ± 6.9 ng/mL
  concentration at 6 h: 53.4 ± 4.8 ng/mL
  concentration at 8 h: 49.1 ± 4.4 ng/mL
  concentration at 10 h: 42.7 ± 3.1 ng/mL
  concentration at 12 h: 37.9 ± 3 ng/mL
  concentration at 24 h: 30.2 ± 3.8 ng/mL

## CN1C(=O)CN=C(c2ccccc2)c2cc(Cl)ccc21 [DIAZEPAM, diazepam]
[1]; first hour
  hematological rates after sublingual administration in relation to oral administration: definitely higher

## O=C1Nc2ccc(Cl)cc2C(c2ccccc2Cl)=NC1O (stereo not drawn) [LORAZEPAM, lorazepam]
[1]
  AUC(0-inf): 621 ± 70.1 ng·h/mL
  AUC(0-t): 452 ± 53 ng·h/mL
  Cmax: 56.9 ± 8.41 ng/mL
  Tmax: 42.6 ± 720 min
  AUC and Cmax, sublingual versus oral: comparable
[1]; other: sublingual
  concentration: 28.3 ± 4.2 ng/mL
  concentration at 0 min: 0 ng/mL
  concentration at 20 min: 44.5 ± 5.9 ng/mL
  concentration at 40 min: 56.5 ± 8.5 ng/mL
  concentration at 1 h: 47.9 ± 8.5 ng/mL
  concentration at 2 h: 37.2 ± 7.7 ng/mL
  concentration at 2.5 h: 32.2 ± 4.4 ng/mL
  concentration at 4 h: 25.6 ± 5 ng/mL
  concentration at 6 h: 22.8 ± 4.61 ng/mL
  concentration at 8 h: 9.6 ± 3.7 ng/mL
  concentration at 10 h: 17.6 ± 2.6 ng/mL
  concentration at 12 h: 14.5 ± 2.3 ng/mL
  concentration at 24 h: 10.3 ± 1.1 ng/mL
[1]; other: sublingual versus oral
  Tmax: ~30 min
[1]; po
  AUC(0-inf): 656 ± 143 ng·h/mL
  AUC(0-t): 454 ± 74.1 ng·h/mL
  Cmax: 54.4 ± 4.98 ng/mL
  Tmax: 91.2 ± 29.4 min
  concentration: 33.4 ± 10.3 ng/mL
  concentration at 0 min: 0 ng/mL
  concentration at 20 min: 30.8 ± 9.4 ng/mL
  concentration at 40 min: 41 ± 10.4 ng/mL
  concentration at 1 h: 46.1 ± 7.9 ng/mL
  concentration at 2 h: 47.3 ± 9.1 ng/mL
  concentration at 2.5 h: 39 ± 10.2 ng/mL
  concentration at 4 h: 28.2 ± 8.4 ng/mL
  concentration at 6 h: 22.6 ± 5.7 ng/mL
  concentration at 8 h: 19.6 ± 4.8 ng/mL
  concentration at 10 h: 16.6 ± 3.5 ng/mL
  concentration at 12 h: 13.5 ± 2.3 ng/mL
  concentration at 24 h: 10.6 ± 1.7 ng/mL
[2]; after oral administration
  plasmatic concentration peak: ~17 ng/mL
[2]; after sublingual administration
  plasmatic concentration peak: about 25 ng/ml
[2]; during the first 60 minutes, 2 mg
  absorption of sublingual formulation compared to oral tablets and intramuscular formulation: higher

Source: patent US8168625B2, “Pharmaceutical composition based on agonist of benzodiazepine” (Sigma Pharma Ltda., priority 2003, dated 2012)
